Reference: ChEMBL document CHEMBL5465560, “Selectivity Literature for EUbOPEN Chemogenomic Library” (2024)

Key:
[1] = molecular target: Serine/threonine-protein kinase WNK1 (Homo sapiens) (UniProt Q9H4A3); test: Selectivity interaction (Kinase panel (KiNativ target engagement assay in Jurkat cells)) EUB0001635a WNK1; format: cell-based; details: at 1 µM
[2] = molecular target: Phosphatidylinositol 4,5-bisphosphate 3-kinase catalytic subunit beta isoform (Homo sapiens) (UniProt P42338); test: Selectivity interaction (KinomeScan (DiscoverX)) EUB0000595a PIK3CB; details: at 10 µM
[3] = molecular target: Protein arginine N-methyltransferase 6 (Homo sapiens, UniProt Q96LA8); test: Selectivity interaction (Transferase panel (protein, RNA, and DNA methyltransferases. and EP300 (acetyltransferase))) EUB0000270b PRMT6
[4] = molecular target: Protein kinase C gamma type (Homo sapiens) (UniProt P05129); test: Selectivity interaction (Kinase screening (Upstate/Millipore)) EUB0000604a PRKCG
[5] = molecular target: T1, Serine/threonine-protein kinase Sgk1 (Homo sapiens) (UniProt O00141); test: Selectivity interaction (Upstate Kinase Profiler service (Millipore)) EUB0000056c SGK1; details: at 1 µM
T1 sequence (whole entry): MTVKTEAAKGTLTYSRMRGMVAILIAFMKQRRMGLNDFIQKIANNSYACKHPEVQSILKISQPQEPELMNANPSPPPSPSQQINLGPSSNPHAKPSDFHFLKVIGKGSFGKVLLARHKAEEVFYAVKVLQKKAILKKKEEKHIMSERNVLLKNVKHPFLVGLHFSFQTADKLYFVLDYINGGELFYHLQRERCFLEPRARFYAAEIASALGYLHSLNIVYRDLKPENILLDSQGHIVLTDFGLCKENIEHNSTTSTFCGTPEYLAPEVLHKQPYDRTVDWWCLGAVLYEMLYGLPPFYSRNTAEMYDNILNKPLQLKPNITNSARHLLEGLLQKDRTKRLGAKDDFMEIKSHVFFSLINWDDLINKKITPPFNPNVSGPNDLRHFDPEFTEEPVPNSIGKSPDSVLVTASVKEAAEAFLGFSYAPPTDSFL

[6] = molecular target: Epidermal growth factor receptor (Homo sapiens, UniProt P00533)
[7] = molecular target: Dual specificity protein kinase CLK3 (Homo sapiens, UniProt P49761); test: Selectivity interaction (ProQinase) EUB0000171b CLK3
[8] = molecular target: Mitogen-activated protein kinase kinase kinase kinase 5 (Homo sapiens) (UniProt Q9Y4K4); test: Selectivity interaction (KinomeScan (DiscoverX)) EUB0001619a MAP4K5; details: at 1 µM
[9] = molecular target: Macrophage-stimulating protein receptor (Homo sapiens, UniProt Q04912); test: Selectivity interaction (KinomeScan (DiscoverX)) EUB0001619a MST1R; details: at 1 µM
[10] = molecular target: BMP-2-inducible protein kinase (Homo sapiens) (UniProt Q9NSY1); test: Selectivity interaction (Kinase panel (DSF assay)) EUB0001489b BMP2K
[11] = molecular target: Ribosomal protein S6 kinase alpha-5 (Homo sapiens) (UniProt O75582); test: Selectivity interaction (SelectScreen profiling (Invitrogen)) EUB0000607a RPS6KA5; details: at 2 µM
[12] = molecular target: Tyrosine-protein kinase JAK1 (Homo sapiens, UniProt P23458); test: Selectivity interaction (ActivX KiNativ screen (kinase selectivity in THP-1 cell lysates)) EUB0000639a JAK1; format: subcellular; details: lysate, at 1 µM
[13] = molecular target: Tyrosine-protein kinase Fer (Homo sapiens) (UniProt P16591); test: Selectivity interaction (ActivX KiNativ screen (kinase selectivity in THP-1 cell lysates)) EUB0000639a FER; format: subcellular; details: lysate, at 0.2 µM
[14] = molecular target: Ribosomal protein S6 kinase alpha-6 (Homo sapiens, UniProt Q9UK32); test: Selectivity interaction (KinomeScan (DiscoverX)) EUB0000655a RPS6KA6; details: at 10 µM
[15] = molecular target: BMP-2-inducible protein kinase (Homo sapiens) (UniProt Q9NSY1); details: at 10 µM
[16] = molecular target: Receptor tyrosine-protein kinase erbB-3 (Homo sapiens) (UniProt P21860); test: Selectivity interaction (KinomeScan (DiscoverX)) EUB0000092b ERBB3; details: at 10 µM
[17] = molecular target: Epithelial discoidin domain-containing receptor 1 (Homo sapiens) (UniProt Q08345); test: Selectivity interaction (Ambit KINOMEscan and KiNATiv profiling in Jurkat cells) EUB0000090b DDR1; format: cell-based; details: at 1 µM
[18] = molecular target: Serine/threonine-protein kinase MARK1 (Homo sapiens) (UniProt Q9P0L2); test: Selectivity interaction (Ambit KINOMEscan and KiNATiv profiling in Jurkat cells) EUB0000090b MARK1; format: cell-based; details: at 1 µM
[19] = molecular target: T2, Discoidin domain-containing receptor 2 (Homo sapiens) (UniProt Q16832); test: Selectivity interaction (Ambit KINOMEscan and KiNATiv profiling in Jurkat cells) EUB0000090b DDR2; format: cell-based; details: at 1 µM
T2 sequence (whole entry): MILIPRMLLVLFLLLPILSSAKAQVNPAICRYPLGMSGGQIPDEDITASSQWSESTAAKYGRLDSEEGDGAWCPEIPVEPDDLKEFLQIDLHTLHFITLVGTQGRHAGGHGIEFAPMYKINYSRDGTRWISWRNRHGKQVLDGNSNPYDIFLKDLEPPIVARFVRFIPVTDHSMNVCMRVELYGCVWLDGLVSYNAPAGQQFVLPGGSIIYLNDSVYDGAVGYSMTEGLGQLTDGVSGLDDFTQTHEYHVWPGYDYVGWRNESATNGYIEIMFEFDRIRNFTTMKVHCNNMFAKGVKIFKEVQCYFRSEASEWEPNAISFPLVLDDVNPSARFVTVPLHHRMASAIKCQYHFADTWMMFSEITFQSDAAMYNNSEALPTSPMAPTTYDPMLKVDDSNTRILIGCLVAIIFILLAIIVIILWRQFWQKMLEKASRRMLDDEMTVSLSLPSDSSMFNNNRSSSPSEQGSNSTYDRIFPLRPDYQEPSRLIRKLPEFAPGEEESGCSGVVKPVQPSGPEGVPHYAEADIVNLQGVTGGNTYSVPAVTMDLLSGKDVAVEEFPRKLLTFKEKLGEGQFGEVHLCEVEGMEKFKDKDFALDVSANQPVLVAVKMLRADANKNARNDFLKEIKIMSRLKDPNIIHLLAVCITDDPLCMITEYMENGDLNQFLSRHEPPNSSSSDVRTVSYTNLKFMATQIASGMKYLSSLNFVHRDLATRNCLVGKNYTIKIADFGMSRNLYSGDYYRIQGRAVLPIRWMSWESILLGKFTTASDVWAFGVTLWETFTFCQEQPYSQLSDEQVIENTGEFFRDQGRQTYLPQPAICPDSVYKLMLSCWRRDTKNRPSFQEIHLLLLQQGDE

Dual specificity protein kinase CLK3, sequence (P49761 whole entry, looked up): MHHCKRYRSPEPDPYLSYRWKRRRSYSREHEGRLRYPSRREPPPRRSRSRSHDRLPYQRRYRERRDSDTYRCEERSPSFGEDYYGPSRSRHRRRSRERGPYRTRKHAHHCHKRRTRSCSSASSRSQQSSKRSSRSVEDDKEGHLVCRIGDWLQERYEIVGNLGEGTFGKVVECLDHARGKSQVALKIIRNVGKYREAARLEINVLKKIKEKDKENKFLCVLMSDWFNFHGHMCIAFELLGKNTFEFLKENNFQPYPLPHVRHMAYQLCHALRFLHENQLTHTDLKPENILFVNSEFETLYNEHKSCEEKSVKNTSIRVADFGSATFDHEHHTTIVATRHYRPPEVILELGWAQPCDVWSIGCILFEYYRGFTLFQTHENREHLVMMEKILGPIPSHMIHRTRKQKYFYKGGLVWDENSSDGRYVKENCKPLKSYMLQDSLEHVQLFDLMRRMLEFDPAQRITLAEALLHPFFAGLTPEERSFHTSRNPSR
BMP-2-inducible protein kinase (Homo sapiens), sequence (Q9NSY1 whole entry, looked up): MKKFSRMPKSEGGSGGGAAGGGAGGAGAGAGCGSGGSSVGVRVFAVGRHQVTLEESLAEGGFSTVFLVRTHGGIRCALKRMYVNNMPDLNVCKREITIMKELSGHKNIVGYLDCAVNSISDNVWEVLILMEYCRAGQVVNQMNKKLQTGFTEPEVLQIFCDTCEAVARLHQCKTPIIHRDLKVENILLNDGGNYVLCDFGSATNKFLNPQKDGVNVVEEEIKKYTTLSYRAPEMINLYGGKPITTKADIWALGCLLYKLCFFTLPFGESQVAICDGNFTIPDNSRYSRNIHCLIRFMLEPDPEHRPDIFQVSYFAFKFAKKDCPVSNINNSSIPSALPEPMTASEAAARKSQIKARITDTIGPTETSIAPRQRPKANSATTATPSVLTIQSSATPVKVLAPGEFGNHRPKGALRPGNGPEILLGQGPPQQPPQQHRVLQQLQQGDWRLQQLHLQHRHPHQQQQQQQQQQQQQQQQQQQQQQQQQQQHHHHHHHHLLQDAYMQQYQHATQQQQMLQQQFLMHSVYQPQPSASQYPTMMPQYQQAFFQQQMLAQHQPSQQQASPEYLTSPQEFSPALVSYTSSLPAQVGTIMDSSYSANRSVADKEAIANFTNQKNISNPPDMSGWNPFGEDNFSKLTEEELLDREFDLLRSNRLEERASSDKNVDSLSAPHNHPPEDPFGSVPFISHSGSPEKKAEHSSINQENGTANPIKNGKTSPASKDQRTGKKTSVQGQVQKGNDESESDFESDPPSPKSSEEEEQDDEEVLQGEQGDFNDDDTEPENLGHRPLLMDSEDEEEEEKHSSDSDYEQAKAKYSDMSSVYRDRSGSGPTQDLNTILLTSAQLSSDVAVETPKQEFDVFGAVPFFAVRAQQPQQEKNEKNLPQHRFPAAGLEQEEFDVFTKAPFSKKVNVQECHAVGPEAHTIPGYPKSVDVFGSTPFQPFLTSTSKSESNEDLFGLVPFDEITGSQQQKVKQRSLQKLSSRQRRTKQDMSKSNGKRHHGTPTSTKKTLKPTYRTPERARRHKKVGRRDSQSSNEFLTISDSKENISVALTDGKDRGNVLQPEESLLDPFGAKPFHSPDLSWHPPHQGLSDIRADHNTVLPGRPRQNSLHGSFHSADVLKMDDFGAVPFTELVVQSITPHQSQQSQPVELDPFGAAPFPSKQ
Protein arginine N-methyltransferase 6, sequence (Q96LA8 whole entry, looked up): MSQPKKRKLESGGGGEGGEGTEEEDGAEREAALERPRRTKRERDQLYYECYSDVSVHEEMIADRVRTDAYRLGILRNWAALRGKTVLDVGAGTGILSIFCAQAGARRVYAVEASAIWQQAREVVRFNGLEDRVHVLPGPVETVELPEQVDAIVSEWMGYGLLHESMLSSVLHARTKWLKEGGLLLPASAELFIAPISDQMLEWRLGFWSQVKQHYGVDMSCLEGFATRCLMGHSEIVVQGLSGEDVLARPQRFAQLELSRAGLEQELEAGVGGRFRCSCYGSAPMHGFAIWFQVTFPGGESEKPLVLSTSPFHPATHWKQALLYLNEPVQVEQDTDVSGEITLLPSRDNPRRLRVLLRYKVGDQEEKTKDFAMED
Serine/threonine-protein kinase MARK1 (Homo sapiens), sequence (Q9P0L2 whole entry, looked up, the tested form may be a part): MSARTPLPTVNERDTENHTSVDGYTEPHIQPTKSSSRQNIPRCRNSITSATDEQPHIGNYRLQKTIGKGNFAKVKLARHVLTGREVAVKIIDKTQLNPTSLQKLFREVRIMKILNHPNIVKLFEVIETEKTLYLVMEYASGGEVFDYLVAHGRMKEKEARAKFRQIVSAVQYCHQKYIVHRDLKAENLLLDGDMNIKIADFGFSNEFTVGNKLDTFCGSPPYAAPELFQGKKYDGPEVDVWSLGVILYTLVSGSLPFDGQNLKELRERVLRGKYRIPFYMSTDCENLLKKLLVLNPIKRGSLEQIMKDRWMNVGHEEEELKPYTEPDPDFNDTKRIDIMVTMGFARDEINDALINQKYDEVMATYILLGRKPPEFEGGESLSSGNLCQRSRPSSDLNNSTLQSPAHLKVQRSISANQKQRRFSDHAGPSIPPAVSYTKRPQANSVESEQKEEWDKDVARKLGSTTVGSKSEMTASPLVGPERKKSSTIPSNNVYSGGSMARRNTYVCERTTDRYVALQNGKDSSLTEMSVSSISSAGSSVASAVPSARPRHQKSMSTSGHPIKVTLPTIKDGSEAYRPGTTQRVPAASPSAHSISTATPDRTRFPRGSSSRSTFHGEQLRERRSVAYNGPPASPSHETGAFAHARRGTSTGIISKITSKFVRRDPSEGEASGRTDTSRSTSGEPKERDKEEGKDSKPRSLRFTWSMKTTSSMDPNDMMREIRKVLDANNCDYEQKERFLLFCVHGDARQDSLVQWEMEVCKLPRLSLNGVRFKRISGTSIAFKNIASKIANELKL
Phosphatidylinositol 4,5-bisphosphate 3-kinase catalytic subunit beta isoform (Homo sapiens), sequence (P42338 whole entry, looked up, canonical isoform): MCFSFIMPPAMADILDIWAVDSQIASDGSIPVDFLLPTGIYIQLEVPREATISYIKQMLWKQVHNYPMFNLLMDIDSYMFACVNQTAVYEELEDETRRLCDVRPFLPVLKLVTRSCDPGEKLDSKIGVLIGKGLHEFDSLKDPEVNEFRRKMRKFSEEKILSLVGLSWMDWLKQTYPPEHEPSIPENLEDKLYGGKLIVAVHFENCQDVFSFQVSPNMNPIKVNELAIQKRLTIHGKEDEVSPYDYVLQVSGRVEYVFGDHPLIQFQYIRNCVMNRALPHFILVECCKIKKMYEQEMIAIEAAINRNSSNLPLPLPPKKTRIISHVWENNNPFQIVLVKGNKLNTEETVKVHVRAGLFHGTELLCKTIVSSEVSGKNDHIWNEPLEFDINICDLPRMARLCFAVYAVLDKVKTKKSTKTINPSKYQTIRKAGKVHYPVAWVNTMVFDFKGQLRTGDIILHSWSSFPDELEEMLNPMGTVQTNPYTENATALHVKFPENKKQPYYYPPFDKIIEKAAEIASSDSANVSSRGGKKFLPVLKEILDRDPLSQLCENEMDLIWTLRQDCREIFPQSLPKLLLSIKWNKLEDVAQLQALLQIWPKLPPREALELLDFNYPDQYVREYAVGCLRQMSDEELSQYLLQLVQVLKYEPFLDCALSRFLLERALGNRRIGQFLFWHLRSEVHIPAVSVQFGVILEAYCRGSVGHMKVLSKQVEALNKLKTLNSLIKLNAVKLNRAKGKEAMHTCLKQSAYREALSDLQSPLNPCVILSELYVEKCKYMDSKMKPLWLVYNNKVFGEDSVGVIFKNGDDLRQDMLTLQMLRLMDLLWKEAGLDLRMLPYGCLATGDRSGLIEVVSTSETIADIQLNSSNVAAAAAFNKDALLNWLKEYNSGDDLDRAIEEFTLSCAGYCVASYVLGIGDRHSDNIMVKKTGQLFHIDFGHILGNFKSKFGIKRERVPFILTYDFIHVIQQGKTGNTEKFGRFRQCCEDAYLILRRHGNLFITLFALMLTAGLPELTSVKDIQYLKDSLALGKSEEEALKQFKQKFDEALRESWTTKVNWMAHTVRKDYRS
Tyrosine-protein kinase Fer (Homo sapiens), sequence (P16591 whole entry, looked up): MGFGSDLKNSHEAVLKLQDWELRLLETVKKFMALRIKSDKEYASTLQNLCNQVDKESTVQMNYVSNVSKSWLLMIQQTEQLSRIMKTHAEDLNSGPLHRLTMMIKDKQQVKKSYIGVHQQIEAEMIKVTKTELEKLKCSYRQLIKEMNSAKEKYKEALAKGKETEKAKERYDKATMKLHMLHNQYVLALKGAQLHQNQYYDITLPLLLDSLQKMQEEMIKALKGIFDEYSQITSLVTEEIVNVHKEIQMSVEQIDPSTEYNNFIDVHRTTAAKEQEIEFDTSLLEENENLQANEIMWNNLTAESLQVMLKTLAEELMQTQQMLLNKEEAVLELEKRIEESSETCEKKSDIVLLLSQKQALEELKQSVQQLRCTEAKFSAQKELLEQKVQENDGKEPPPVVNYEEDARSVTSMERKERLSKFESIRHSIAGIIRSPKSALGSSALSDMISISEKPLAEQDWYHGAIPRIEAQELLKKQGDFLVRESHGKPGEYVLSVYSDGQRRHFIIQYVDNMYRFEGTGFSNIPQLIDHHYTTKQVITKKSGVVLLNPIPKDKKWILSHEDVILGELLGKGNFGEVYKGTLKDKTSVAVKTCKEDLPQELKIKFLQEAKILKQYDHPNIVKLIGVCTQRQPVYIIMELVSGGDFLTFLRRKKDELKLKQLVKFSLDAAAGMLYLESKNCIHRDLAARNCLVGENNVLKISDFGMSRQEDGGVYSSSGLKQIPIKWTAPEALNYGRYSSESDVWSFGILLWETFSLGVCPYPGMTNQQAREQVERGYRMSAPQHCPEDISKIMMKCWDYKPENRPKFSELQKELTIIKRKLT

`C=CC(=O)Nc1ccc(C(=O)Nc2[nH]nc3c2CN(C(=O)N[C@H](CN(C)C)c2ccccc2)C3(C)C)cc1` showed a % of engagement [1] of -16.1%.

Work on `COCC(=O)NC/C=C/c1ccc2ncnc(Nc3ccc(Oc4ccc(C)nc4)c(C)c3)c2c1` [CP-724714] yielded a % of control [2] of 100%.

With `Cc1cc(CN)cc(C)c1-c1ncn(C)c1-c1cncn1C` the % activity ([3]; at 1 µM) was > 90% and the % activity ([3]; at 10 µM) was > 80%.

`Cc1cnc(Nc2ccc(F)cc2Cl)nc1-c1c[nH]c(C(=O)N[C@H](CO)c2cccc(Cl)c2)c1` was tested, and the % of inhibition [4] was 11%.

In the case of `Cc1ccc(-c2ccc3c(ccc4sc5c(c43)NC[C@@H](C)NC5=O)n2)cn1`, the % of inhibition [5] is reported as 4%.

With `CCc1cccc(CC)c1NC(=O)c1nn(C)c2c1CCc1cnc(Nc3ccc(C(=O)NC4CCN(C)CC4)cc3OC(F)(F)F)nc1-2` the IC50 [6] was > 10 µM.

`C=CC(=O)Nc1cccc(C(=O)Nc2ccc(Nc3cc(-c4[nH]c(SC)nc4C)ccn3)cc2)c1` showed a % of control ([7]; at 1 µM) of 98% and a % of control ([7]; at 5 µM) of 89%.

Work on `N#Cc1cccc(-c2c[nH]c3ncnc(N4CCOCC4)c23)c1` yielded a % of control [8] of 53% and a % of control [9] of 95%.

Work on `CN1CCN(C(=O)c2ccc3cc2OCCOCCNc2ccn4ncc-3c4n2)CC1` yielded a dTM [10] of 6.8 K.

`CNC(=O)Nc1ccc(-c2nc(N3CC4CCC(C3)O4)c3cnn(C4CCC5(CC4)OCCO5)c3n2)cc1` showed a % of inhibition [11] of 1%.

With `CC[C@@H]1[C@H](F)C(=O)N[C@@H]1COc1nccc2cc(C(N)=O)c(OC)cc12` [ZIMLOVISERTIB] the % of inhibition [12] was 3.8% and the % of inhibition [13] was -7.1%.

With `CN(C)CCOc1ccc(-c2nc(-c3ccncc3)c(-c3ccc4c(c3)CC/C4=N\O)[nH]2)cc1` the % of control [14] was 82%.

`CCN(CC)CCCCNc1ncc2cc(-c3cc(OC)cc(OC)c3)c(NC(=O)NC(C)(C)C)nc2n1` was tested, and the % of control [15] was 100%.

`CCC(=O)N1CCN(c2ccc(-n3c(=O)ccc4cnc5ccc(-c6cnc7ccccc7c6)cc5c43)cc2C(F)(F)F)CC1` gave a % of control [16] of 44%.

`CN(C)C/C=C/C(=O)Nc1ccc(C(=O)N2CCCC(Nc3ncc(Cl)c(-c4c[nH]c5ccccc45)n3)C2)cc1` (stereo unspecified) gave a % of control [17] of 93%, a % of control [18] of 100% and a % of control [19] of 100%.
